The results in this text go back to PubChem BioAssay (NCI).

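1) Cells in 96-well plates. 2) Compound, 48 h, 5 concentrations. 3) Linear interpolation between surrounding doses. 4) Unreached endpoint = highest concentration. Abbreviation: GI50, concentration required for 50% inhibition of growth. TGI denotes the concentration required for complete inhibition of growth.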

Test systems include COLO 205 colon; HCT-15 colon; HL-60(TB) leukemia; KM12 colon; MALME-3M melanoma; OVCAR-3 ovarian; OVCAR-8 ovarian; T-47D breast.
Experiment in all cases: inhibition of tumour cell growth, NCI panel, 48 h

Take `Nc1ncn([C@H]2CC(O)[C@@H](CO)S2)c(=O)n1` (some centres not stated): the GI50 in the assay on COLO 205 colon is 0.839 µM; with HCT-15 colon, 1.71 µM; in the assay with HL-60(TB) leukemia it was 5.27 µM; with KM12 colon it was 3.27 µM; in the assay with MALME-3M melanoma, 88.6 µM; with OVCAR-3 ovarian, 6.08 µM. Also, the GI50 in the assay on OVCAR-8 ovarian was 0.42 µM; with T-47D breast, above 100 µM. Besides, the TGI with COLO 205 colon, in the assay on HCT-15 colon, with HL-60(TB) leukemia, with KM12 colon, in the assay on MALME-3M melanoma and in the assay with OVCAR-3 ovarian was above 100 µM throughout. Also, the TGI in the assay on OVCAR-8 ovarian and in the assay with T-47D breast was above 100 µM throughout.

Consider `COc1ccc(-c2nsc3c2NC(=O)CC3c2ccsc2)cc1` (configuration not stated), for which the GI50 is 0.11 µM in the assay on COLO 205 colon; 0.101 µM in the assay on HCT-15 colon; 0.143 µM with HL-60(TB) leukemia; 0.0715 µM in the assay on KM12 colon; 0.135 µM in the assay on MALME-3M melanoma; 0.211 µM in the assay with OVCAR-3 ovarian. For the same compound, the GI50 in the assay on OVCAR-8 ovarian was 0.409 µM; in the assay on T-47D breast, 0.454 µM. For the same compound, the TGI with COLO 205 colon is 0.846 µM; in the assay with HCT-15 colon, above 100 µM; with HL-60(TB) leukemia, 20.6 µM; in the assay on KM12 colon it was above 34 µM; in the assay with MALME-3M melanoma it was 72.9 µM; in the assay on OVCAR-3 ovarian it was 0.611 µM. In addition, the TGI in the assay on OVCAR-8 ovarian was above 25.2 µM; in the assay on T-47D breast, 65.6 µM.

Consider `Cc1ccc(-c2nc(NCCOCCOCCN)nc(N3CCN(c4ccccn4)CC3)n2)cc1`, for which the GI50 with COLO 205 colon is 6.89 µM; with HCT-15 colon, 10.1 µM; in the assay with HL-60(TB) leukemia it was 18.7 µM; with KM12 colon, 16.6 µM; in the assay on MALME-3M melanoma, 15.2 µM; in the assay with OVCAR-3 ovarian, 16.9 µM. In addition, the GI50 with OVCAR-8 ovarian was 17.8 µM; with T-47D breast, 13.7 µM. The TGI in the assay on COLO 205 colon was 14.2 µM; in the assay with HCT-15 colon, 29.8 µM; with HL-60(TB) leukemia, 40.5 µM; with KM12 colon, 32.9 µM; with MALME-3M melanoma, 33.7 µM; in the assay on OVCAR-3 ovarian it was 31.2 µM. Besides, the figures for the TGI with OVCAR-8 ovarian and with T-47D breast were 37.5 µM and 29.1 µM, respectively.

On to `Fc1ccccc1CN1COc2c(cc(Cl)c3cccnc23)C1`, for which the TGI with COLO 205 colon was found to be 28.3 µM; with HCT-15 colon, 2.23 µM; in the assay with HL-60(TB) leukemia, 10.4 µM; with KM12 colon, 12.1 µM; in the assay on MALME-3M melanoma, 12.2 µM; in the assay with OVCAR-3 ovarian, 19.2 µM. The TGI in the assay with OVCAR-8 ovarian stood at 10.7 µM; with T-47D breast, 18.4 µM.

For the compound `Cn1c(=O)c(-c2ccccc2Cl)cc2cnc(NC3CCOCC3)nc21`, the GI50 was 9.61 µM in the assay on COLO 205 colon; 9.82 µM in the assay with HCT-15 colon; 10.5 µM with HL-60(TB) leukemia; 21.1 µM in the assay on KM12 colon; 7.08 µM in the assay on MALME-3M melanoma; above 22.7 µM with OVCAR-3 ovarian. The GI50 was 10.2 µM with OVCAR-8 ovarian and 18.1 µM with T-47D breast. For the same compound, the TGI was above 25 µM with COLO 205 colon; above 25 µM in the assay on HCT-15 colon; above 25 µM in the assay with HL-60(TB) leukemia; above 25 µM with KM12 colon; above 22.3 µM in the assay on MALME-3M melanoma; above 25 µM in the assay with OVCAR-3 ovarian. In addition, the TGI in the assay with OVCAR-8 ovarian and in the assay with T-47D breast was above 25 µM in each case.

On to `Cc1cc(NC(=O)NCc2ccc(N3C(N)=NC(N)=NC3(C)C)cc2)ccc1S(=O)(=O)F`, for which the GI50 with COLO 205 colon is 2.77 µM; in the assay on HCT-15 colon it was 11.2 µM; in the assay on HL-60(TB) leukemia it was 0.716 µM; in the assay on KM12 colon, 0.665 µM; in the assay with MALME-3M melanoma, 29 µM; in the assay on OVCAR-3 ovarian, 8.4 µM. Further, the GI50 in the assay with OVCAR-8 ovarian is 6.76 µM; in the assay with T-47D breast, 15.7 µM. The TGI is above 100 µM in the assay on COLO 205 colon; above 100 µM with HCT-15 colon; above 57.5 µM with HL-60(TB) leukemia; above 100 µM in the assay with KM12 colon; 98.5 µM with MALME-3M melanoma; above 81.9 µM with OVCAR-3 ovarian. Besides, the TGI with OVCAR-8 ovarian and in the assay with T-47D breast was above 100 µM each time.

As to `COc1cc2ncn(-c3cc(OCc4ccccc4C(F)(F)F)c(C(N)=O)s3)c2cc1OC`, the GI50 in the assay on COLO 205 colon was 0.117 µM; in the assay on HCT-15 colon, 0.211 µM; in the assay on HL-60(TB) leukemia, 0.0361 µM; in the assay on KM12 colon, 0.0958 µM; with MALME-3M melanoma it was 14.5 µM; in the assay on OVCAR-3 ovarian, 0.0838 µM. Also, the results for the GI50 in the assay on OVCAR-8 ovarian and in the assay on T-47D breast were 0.168 µM and 4.42 µM, respectively. Further, the TGI in the assay on COLO 205 colon was above 25 µM; with HCT-15 colon, above 25 µM; in the assay with HL-60(TB) leukemia, above 25 µM; with KM12 colon it was above 25 µM; in the assay on MALME-3M melanoma, above 25 µM; in the assay on OVCAR-3 ovarian, 0.794 µM. The TGI in the assay on OVCAR-8 ovarian was above 19.9 µM; in the assay on T-47D breast it was above 25 µM.

With `C=C1C(=O)OC2CC(C)C(/C=C/C(C)=O)=CCC12` (configuration not stated), the TGI was above 100 µM in the assay with COLO 205 colon; above 100 µM in the assay on HCT-15 colon; above 100 µM with HL-60(TB) leukemia; above 100 µM in the assay with KM12 colon; 89.4 µM with MALME-3M melanoma; above 100 µM with OVCAR-3 ovarian. Further, the TGI in the assay with OVCAR-8 ovarian and in the assay on T-47D breast was above 100 µM in each case.

On to `C=CCC(N[C@@H](CO)c1ccccc1)c1ccc2ccccc2n1` (some centres not stated), for which the GI50 with COLO 205 colon was above 100 µM; with HCT-15 colon, above 100 µM; with HL-60(TB) leukemia, 12.3 µM; in the assay on KM12 colon, above 100 µM; with MALME-3M melanoma, 88.6 µM; in the assay on OVCAR-3 ovarian, 57.4 µM. In addition, the GI50 in the assay with OVCAR-8 ovarian is above 100 µM; in the assay on T-47D breast, 61.1 µM. In addition, the TGI in the assay with COLO 205 colon was above 100 µM; with HCT-15 colon, above 100 µM; with HL-60(TB) leukemia, 51.5 µM; with KM12 colon it was above 100 µM; in the assay with MALME-3M melanoma it was above 100 µM; with OVCAR-3 ovarian it was above 100 µM. The TGI in the assay with OVCAR-8 ovarian and in the assay with T-47D breast was above 100 µM each time.

As for `CCn1cc(C(=O)O)c(=O)c2cc(F)c(N3CCN(S(=O)(=O)c4ccc(Cl)cc4Cl)CC3)cc21`, the GI50 in the assay on COLO 205 colon was 2.44 µM; in the assay on HCT-15 colon, 2.82 µM; in the assay on HL-60(TB) leukemia it was 2.22 µM; in the assay on KM12 colon it was 3.42 µM; in the assay on MALME-3M melanoma it was 1.94 µM; in the assay with OVCAR-3 ovarian, 2.54 µM. Besides, the GI50 in the assay with OVCAR-8 ovarian is 3.3 µM; in the assay with T-47D breast it was 3.11 µM. Moreover, the TGI is 5.1 µM with COLO 205 colon; above 100 µM in the assay on HCT-15 colon; 5.15 µM in the assay with HL-60(TB) leukemia; above 100 µM with KM12 colon; 4.17 µM in the assay with MALME-3M melanoma; 5.79 µM in the assay on OVCAR-3 ovarian. The figures for the TGI in the assay on OVCAR-8 ovarian and with T-47D breast were 29 µM and 9.71 µM, respectively.

In the case of `O=[N+]([O-])c1cccc(/C=N/Nc2ccc3ccccc3n2)c1O`, the TGI is 9.48 µM with COLO 205 colon; above 100 µM with HCT-15 colon; 3.13 µM in the assay with HL-60(TB) leukemia; 32.9 µM in the assay with KM12 colon; 11.3 µM in the assay on MALME-3M melanoma; 0.632 µM with OVCAR-3 ovarian. The TGI in the assay with OVCAR-8 ovarian is above 39 µM; with T-47D breast, 4.89 µM.
